Test system: HIV-1 (H9IIIB strain)
Test: Cell-based HIV infection assay using a reporter (Cell-Based), MT4-GFP cells
Conditions: Human immunodeficiency virus 1, MT4-GFP cells infected with HIV-1 H9IIIB; 50% normal human serum; mean of at least two independent experiments; read-out: Cell-based IP
How it was run: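 MT4-GFP cells (HIV LTR-driven GFP) infected 24 h with HIV-1 H9IIIB at low MOI, then washed and plated with compounds in RPMI + 50% normal human serum, 0.4% DMSO final. Green cells counted at 24 and 48 h; R0 = 48 h/24 h ratio, inhibition normalized to DMSO and triple-drug control; IC50 from 4-parameter fit.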

Row | SMILES | IC50 [nM]
1 | N[C@H](C(=O)Nc1cccc(F)c1CC[C@H]1CNCCN1S(=O)(=O)c1ccccc1)[C@H](CCC1CCOCC1)c1ccc(Cl)c(F)c1 [Example 72, (βR)-4-chloro-3-fluoro-N-(3-fluoro-2-{2-[(2S)-1-(phenylsulfonyl)piperazin-2-yl]ethyl}phenyl)-β-[2-(tetrahydro-2H-pyran-4-yl)ethyl]-L-phenylalaninamide] | 21
2 | COC(=O)N[C@H](C(=O)Nc1cccc(F)c1CC[C@H]1CNCCN1S(=O)(=O)c1ccccc1)[C@H](CCC1CCOCC1)c1ccc(Cl)c(F)c1 [Example 73, (βR)-4-chloro-3-fluoro-N-(3-fluoro-2-{2-[(2S)-1-(phenylsulfonyl)piperazin-2-yl]ethyl}phenyl)-Nα-(methoxycarbonyl)-β-[2-(tetrahydro-2H-pyran-4-yl)ethyl]-L-phenylalaninamide] | 7.6
3 | CC1(C)CC([C@H](c2ccc(Cl)cc2)[C@H](N)C(=O)Nc2cccc(F)c2CC[C@H]2CNCCN2S(=O)(=O)c2ccccc2)CCO1 (stereo partly drawn) [Example 74, (βR)-4-chloro-β-(2,2-dimethyltetrahydro-2H-pyran-4-yl)-N-(3-fluoro-2-{2-[(2S)-1-(phenylsulfonyl)piperazin-2-yl]ethyl}phenyl)-L-phenylalaninamide] | 24
4 | CC1(C)CC([C@H](c2ccc(Cl)cc2)[C@H](N)C(=O)Nc2cccc(F)c2CC[C@H]2CNCCN2S(=O)(=O)c2ccccc2)CC(C)(C)O1 [Example 75, (βR)-4-chloro-N-(3-fluoro-2-{2-[(2S)-1-(phenylsulfonyl)piperazin-2-yl]ethyl}phenyl)-β-(2,2,6,6-tetramethyltetrahydro-2H-pyran-4-yl)-L-phenylalaninamide] | 150
5 | COC(=O)N[C@H](C(=O)Nc1cccc(F)c1CC[C@H]1CNCCN1S(=O)(=O)c1ccccc1)[C@@H](c1ccc(Cl)cc1)C1CCOC(C)(C)C1 (stereo partly drawn) [Example 76, (βR)-4-chloro-β-(2,2-dimethyltetrahydro-2H-pyran-4-yl)-N-(3-fluoro-2-{2-[(2S)-1-(phenylsulfonyl)piperazin-2-yl]ethyl}phenyl)-Nα-(methoxycarbonyl)-L-phenylalaninamide] | 9.4
6 | COC(=O)N[C@H](C(=O)Nc1cccc(F)c1CC[C@H]1CNCCN1S(=O)(=O)c1ccccc1)[C@@H](c1ccc(Cl)cc1)C1CC(C)(C)OC(C)(C)C1 [Example 77, (βR)-4-chloro-N-(3-fluoro-2-{2-[(2S)-1-(phenylsulfonyl)piperazin-2-yl]ethyl}phenyl)-Nα-(methoxycarbonyl)-β-(2,2,6,6-tetramethyltetrahydro-2H-pyran-4-yl)-L-phenylalaninamide] | 18
7 | CC1(C)CC([C@H](c2ccc(Cl)cc2)[C@H](N)C(=O)Nc2cccc(F)c2CC[C@H]2CNCCN2S(C)(=O)=O)CCO1 (stereo partly drawn) [Example 78, (βR)-4-chloro-β-(2,2-dimethyltetrahydro-2H-pyran-4-yl)-N-(3-fluoro-2-{2-[(2S)-1-(methylsulfonyl)piperazin-2-yl]ethyl}phenyl)-L-phenylalaninamide] | 110
8 | COC(=O)N[C@H](C(=O)Nc1cccc(F)c1CC[C@H]1CNCCN1S(C)(=O)=O)[C@@H](c1ccc(Cl)cc1)C1CCOC(C)(C)C1 (stereo partly drawn) [Example 79, (βR)-4-chloro-β-(2,2-dimethyltetrahydro-2H-pyran-4-yl)-N-(3-fluoro-2-{2-[(2S)-1-(methylsulfonyl)piperazin-2-yl]ethyl}phenyl)-Nα-(methoxycarbonyl)-L-phenylalaninamide] | 30
9 | CC(=O)N[C@H](C(=O)Nc1cncc(F)c1CC[C@H]1CNCCN1S(=O)(=O)C1CC1)[C@@H](c1ccc(F)cc1)c1cc(F)cc(F)c1 [Example 80, (βS)-Nα-acetyl-N-(4-{2-[(2S)-1-(cyclopropylsulfonyl)piperazin-2-yl]ethyl}-5-fluoropyridin-3-yl)-3,5-difluoro-β-(4-fluorophenyl)-L-phenylalaninamide] | 66
10 | O=C(N[C@H](C(=O)Nc1cncc(F)c1CC[C@H]1CNCCN1S(=O)(=O)C1CC1)[C@@H](c1ccc(F)cc1)c1cc(F)cc(F)c1)C1CC1 [Example 81] | 25
11 | O=C(CC1CC1)N[C@H](C(=O)Nc1cncc(F)c1CC[C@H]1CNCCN1S(=O)(=O)C1CC1)[C@@H](c1ccc(F)cc1)c1cc(F)cc(F)c1 [Example 82, (βS)-Nα-(cyclopropylacetyl)-N-(4-{2-[(2S)-1-(cyclopropylsulfonyl)piperazin-2-yl]ethyl}-5-fluoropyridin-3-yl)-3,5-difluoro-β-(4-fluorophenyl)-L-phenylalaninamide] | 34
12 | N[C@H](C(=O)Nc1cncc(F)c1CC[C@H]1CNCCN1S(=O)(=O)N1CCCC1)[C@@H](c1ccc(F)cc1)c1cc(F)cc(F)c1 [Example 83, (βS)-3,5-difluoro-β-(4-fluorophenyl)-N-(5-fluoro-4-{2-[(2S)-1-(pyrrolidin-1-ylsulfonyl)piperazin-2-yl]ethyl}pyridin-3-yl)-L-phenylalaninamide] | 8.9
13 | COC(=O)N[C@H](C(=O)Nc1cncc(F)c1CC[C@H]1CNCCN1S(=O)(=O)N1CCCC1)[C@@H](c1ccc(F)cc1)c1cc(F)cc(F)c1 [Example 84, (βS)-3,5-difluoro-β-(4-fluorophenyl)-N-(5-fluoro-4-{2-[(2S)-1-(pyrroldin-1-ylsulfonyl)piperazin-2-yl]ethyl}pyridin-3-yl)-Nα-(methoxycarbonyl)-L-phenylalaninamide] | 8.4
14 | CC(=O)N[C@H](C(=O)Nc1cncc(F)c1CC[C@H]1CNCCN1S(=O)(=O)N1CCCC1)[C@@H](c1ccc(F)cc1)c1cc(F)cc(F)c1 [Example 85, (βS)-Nα-acetyl-3,5-difluoro-β-(4-fluorophenyl)-N-(5-fluoro-4-{2-[(2S)-1-(pyrrolidin-1-ylsulfonyl)piperazin-2-yl]ethyl}pyridin-3-yl)-L-phenylalaninamide] | 21
15 | O=C(N[C@H](C(=O)Nc1cncc(F)c1CC[C@H]1CNCCN1S(=O)(=O)N1CCCC1)[C@@H](c1ccc(F)cc1)c1cc(F)cc(F)c1)C1CC1 [Example 86] | 13
16 | O=C(CC1CC1)N[C@H](C(=O)Nc1cncc(F)c1CC[C@H]1CNCCN1S(=O)(=O)N1CCCC1)[C@@H](c1ccc(F)cc1)c1cc(F)cc(F)c1 [Example 87] | 16
17 | C[C@@H]1CN(S(=O)(=O)c2ccccc2)[C@@H](CCc2c(F)cccc2NC(=O)CC(c2ccc(F)cc2)c2ccc(F)cc2)CN1 [Example 88, N-(3-fluoro-2-{2-[(2S,5R)-5-methyl-1-(phenylsulfonyl)piperazin-2-yl]ethyl}phenyl)-3,3-bis(4-fluorophenyl) propanamide] | 520
18 | C[C@H]1CN(S(=O)(=O)c2ccccc2)[C@@H](CCc2c(F)cccc2NC(=O)CC(c2ccc(F)cc2)c2ccc(F)cc2)CN1 [Example 89, N-(3-fluoro-2-{2-[(2S,5S)-5-methyl-1-(phenylsulfonyl)piperazin-2-yl]ethyl}phenyl)-3,3-bis(4-fluorophenyl) propanamide] | 700
19 | C[C@@H]1CNC[C@H](CCc2c(F)cccc2NC(=O)CC(c2ccc(F)cc2)c2ccc(F)cc2)N1S(=O)(=O)c1ccccc1 [Example 90, N-(3-fluoro-2-{2-[(2S,6R)-6-methyl-1-(phenylsulfonyl)piperazin-2-yl]ethyl}phenyl)-3,3-bis(4-fluorophenyl) propanamide] | 66
20 | C[C@@H]1CNC[C@@H](CCc2c(F)cccc2NC(=O)CC(c2ccc(F)cc2)c2ccc(F)cc2)N1S(=O)(=O)c1ccccc1 [Example 91, N-(3-fluoro-2-{2-[(2R,6R)-6-methyl-1-(phenylsulfonyl)piperazin-2-yl]ethyl}phenyl)-3,3-bis(4-fluorophenyl) propanamide] | 1700
21 | C[C@H]1CNC[C@H](CCc2c(F)cccc2NC(=O)CC(c2ccc(F)cc2)c2ccc(F)cc2)N1S(=O)(=O)c1ccccc1 [Example 92, N-(3-fluoro-2-{2-[(2S,6S)-6-methyl-1-(phenylsulfonyl)piperazin-2-yl]ethyl}phenyl)-3,3-bis(4-fluorophenyl) propanamide] | 17
22 | C[C@H]1CNC[C@@H](CCc2c(F)cccc2NC(=O)CC(c2ccc(F)cc2)c2ccc(F)cc2)N1S(=O)(=O)c1ccccc1 [Example 93, N-(3-fluoro-2-{2-[(2R,6S)-6-methyl-1-(phenylsulfonyl)piperazin-2-yl]ethyl}phenyl)-3,3-bis(4-fluorophenyl) propanamide] | 120
23 | C[C@@H]1CNC[C@H](CCc2c(F)cccc2NC(=O)[C@@H](N)[C@@H](c2ccc(F)cc2)c2cc(F)cc(F)c2)N1S(=O)(=O)c1ccccc1 [Example 94, (βS)-β-(3,5-difluorophenyl)-4-fluoro-N-(3-fluoro-2-{2-[(2S,6R)-6-methyl-1-(phenylsulfonyl)piperazin-2-yl]ethyl}phenyl)-L-phenylalaninamide] | 24
24 | COC(=O)N[C@H](C(=O)Nc1cccc(F)c1CC[C@H]1CNC[C@H](C)N1S(=O)(=O)c1ccccc1)[C@@H](c1ccc(F)cc1)c1cc(F)cc(F)c1 [Example 95, (βS)-β-(3,5-difluorophenyl)-4-fluoro-N-(3-fluoro-2-{2-[(2S,6S)-6-methyl-1-(phenylsulfonyl)piperazin-2-yl]ethyl}phenyl)-Nα-(methoxycarbonyl)-L-phenylalaninamide] | 20
25 | C[C@H]1CNC[C@H](CCc2c(F)cccc2NC(=O)[C@@H](N)[C@@H](c2ccc(F)cc2)c2cc(F)cc(F)c2)N1S(=O)(=O)c1ccccc1 [Example 97, (βS)-β-(3,5-difluorophenyl)-4-fluoro-N-(3-fluoro-2-{2-[(2S,6S)-6-methyl-1-(phenylsulfonyl)piperazin-2-yl]ethyl}phenyl)-L-phenylalaninamide] | 25
26 | C[C@@H]1CN(S(=O)(=O)c2ccccc2)[C@@H](CCc2c(F)cccc2NC(=O)[C@@H](N)[C@@H](c2ccc(Cl)cc2)c2cccc(OC(F)(F)F)c2)CN1 [Example 98, (βS)-4-chloro-N-(3-fluoro-2-{2-[(2S,5R)-5-methyl-1-(phenylsulfonyl)piperazin-2-yl]ethyl}phenyl)-β-[3-(trifluoromethoxy)phenyl]-L-phenylalaninamide] | 350

— patent US9840478B2 (MERCK SHARP & DOHME CORP., priority 2013, dated 2017)
